According to ChEMBL document CHEMBL1909046, “DrugMatrix in vitro pharmacology data”:

What was measured:
[1] = DRUGMATRIX: Calcium Channel Type L, Phenylalkylamine radioligand binding (ligand: [3H] (-)-Desmethoxyverapamil (D-888)); assay type: cell membranes, Rattus norvegicus, Wistar, Brain, Membrane; conditions: Not Active = under 50% inhibition at 10 µM
[2] = molecular target: T1, C-X-C chemokine receptor type 1 (Homo sapiens, UniProt P25024); also: in other assays of this panel Not Active means under 50% inhibition at 10 µM
T1 sequence (P25024 whole entry): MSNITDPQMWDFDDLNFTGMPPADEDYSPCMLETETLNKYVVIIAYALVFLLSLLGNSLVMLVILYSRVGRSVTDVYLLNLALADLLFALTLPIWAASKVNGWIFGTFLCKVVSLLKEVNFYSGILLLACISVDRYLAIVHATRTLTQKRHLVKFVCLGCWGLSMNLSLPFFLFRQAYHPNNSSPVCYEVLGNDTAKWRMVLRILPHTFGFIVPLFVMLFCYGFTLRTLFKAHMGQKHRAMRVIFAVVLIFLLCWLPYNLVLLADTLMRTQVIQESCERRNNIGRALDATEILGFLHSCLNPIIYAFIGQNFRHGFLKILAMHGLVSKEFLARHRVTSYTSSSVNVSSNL

[3] = DRUGMATRIX: Imidazoline I2, Central radioligand binding (ligand: [3H] Idazoxan); assay type: cell membranes, Rattus norvegicus, Wistar, Cerebral cortex, Membrane; conditions: Not Active = under 50% inhibition at 10 µM
Melanocortin receptor 4 = Melanocortin receptor 4 (Homo sapiens, UniProt P32245); assay type: cell membranes, Membrane; conditions: hek293; also: in other assays of this panel Not Active means under 50% inhibition at 10 µM
[4] = DRUGMATRIX: Phorbol Ester radioligand binding (ligand: [3H] PDBu); assay type: cell membranes, Mus musculus, ICR, Brain, Membrane; conditions: Not Active = under 50% inhibition at 10 µM
[5] = molecular target: Mitogen-activated protein kinase 3 (Homo sapiens, UniProt P27361); assay: DRUGMATRIX: Protein Serine/Threonine Kinase, ERK1 enzyme inhibition (substrate: Myelin Basic Protein); design: species or system Escherichia coli; conditions: Not Active = under 50% inhibition at 10 µM
[6] = molecular target: Receptor tyrosine-protein kinase erbB-2 (Homo sapiens, UniProt P04626); assay: biochemical; assay type: cell-based, Insect cells;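 also: inhibition of HER2 kinase enzyme activity, measured with Poly(Glu:Tyr) as the phosphorylation substrate; in other assays of this panel Not Active means under 50% inhibition at 10 µM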
Estrogen receptor beta = Estrogen receptor beta (Homo sapiens, UniProt Q92731); conditions: sf9; also: in other assays of this panel Not Active means under 50% inhibition at 10 µM
Chain of Estrogen receptor beta (Q92731 whole entry): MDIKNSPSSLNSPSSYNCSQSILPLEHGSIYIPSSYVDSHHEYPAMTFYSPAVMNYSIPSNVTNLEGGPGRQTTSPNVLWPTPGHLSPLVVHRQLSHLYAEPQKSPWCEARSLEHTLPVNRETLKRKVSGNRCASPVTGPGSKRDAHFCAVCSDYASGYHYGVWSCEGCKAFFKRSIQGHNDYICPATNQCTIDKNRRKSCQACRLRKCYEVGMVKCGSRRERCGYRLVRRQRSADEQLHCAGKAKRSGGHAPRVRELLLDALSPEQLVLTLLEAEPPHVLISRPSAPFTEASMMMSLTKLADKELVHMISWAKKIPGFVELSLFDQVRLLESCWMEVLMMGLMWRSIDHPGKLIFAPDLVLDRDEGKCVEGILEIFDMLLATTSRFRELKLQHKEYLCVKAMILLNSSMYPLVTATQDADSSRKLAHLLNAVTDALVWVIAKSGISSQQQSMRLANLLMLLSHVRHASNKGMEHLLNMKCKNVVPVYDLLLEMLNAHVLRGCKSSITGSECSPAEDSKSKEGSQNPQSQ

Chain of Mitogen-activated protein kinase 3 (P27361 whole entry): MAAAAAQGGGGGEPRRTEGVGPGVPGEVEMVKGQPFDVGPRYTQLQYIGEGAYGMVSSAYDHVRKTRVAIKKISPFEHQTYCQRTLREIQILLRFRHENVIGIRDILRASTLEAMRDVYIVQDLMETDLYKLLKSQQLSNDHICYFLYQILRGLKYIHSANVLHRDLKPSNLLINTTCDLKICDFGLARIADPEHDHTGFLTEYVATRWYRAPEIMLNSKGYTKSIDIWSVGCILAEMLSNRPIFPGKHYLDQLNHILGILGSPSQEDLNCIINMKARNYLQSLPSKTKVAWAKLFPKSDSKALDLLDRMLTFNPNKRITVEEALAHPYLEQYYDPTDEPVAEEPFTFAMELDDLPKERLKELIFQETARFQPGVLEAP
Chain of Melanocortin receptor 4 (P32245 whole entry): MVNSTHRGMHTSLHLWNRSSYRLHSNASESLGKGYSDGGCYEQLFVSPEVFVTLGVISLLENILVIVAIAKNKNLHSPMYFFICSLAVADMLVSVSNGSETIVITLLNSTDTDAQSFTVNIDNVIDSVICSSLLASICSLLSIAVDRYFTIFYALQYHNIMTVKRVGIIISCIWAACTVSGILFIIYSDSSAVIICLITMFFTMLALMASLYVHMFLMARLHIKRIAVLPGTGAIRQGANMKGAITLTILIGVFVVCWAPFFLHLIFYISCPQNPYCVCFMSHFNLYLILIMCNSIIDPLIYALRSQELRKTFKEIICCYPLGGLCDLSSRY
Chain of Receptor tyrosine-protein kinase erbB-2 (P04626 whole entry): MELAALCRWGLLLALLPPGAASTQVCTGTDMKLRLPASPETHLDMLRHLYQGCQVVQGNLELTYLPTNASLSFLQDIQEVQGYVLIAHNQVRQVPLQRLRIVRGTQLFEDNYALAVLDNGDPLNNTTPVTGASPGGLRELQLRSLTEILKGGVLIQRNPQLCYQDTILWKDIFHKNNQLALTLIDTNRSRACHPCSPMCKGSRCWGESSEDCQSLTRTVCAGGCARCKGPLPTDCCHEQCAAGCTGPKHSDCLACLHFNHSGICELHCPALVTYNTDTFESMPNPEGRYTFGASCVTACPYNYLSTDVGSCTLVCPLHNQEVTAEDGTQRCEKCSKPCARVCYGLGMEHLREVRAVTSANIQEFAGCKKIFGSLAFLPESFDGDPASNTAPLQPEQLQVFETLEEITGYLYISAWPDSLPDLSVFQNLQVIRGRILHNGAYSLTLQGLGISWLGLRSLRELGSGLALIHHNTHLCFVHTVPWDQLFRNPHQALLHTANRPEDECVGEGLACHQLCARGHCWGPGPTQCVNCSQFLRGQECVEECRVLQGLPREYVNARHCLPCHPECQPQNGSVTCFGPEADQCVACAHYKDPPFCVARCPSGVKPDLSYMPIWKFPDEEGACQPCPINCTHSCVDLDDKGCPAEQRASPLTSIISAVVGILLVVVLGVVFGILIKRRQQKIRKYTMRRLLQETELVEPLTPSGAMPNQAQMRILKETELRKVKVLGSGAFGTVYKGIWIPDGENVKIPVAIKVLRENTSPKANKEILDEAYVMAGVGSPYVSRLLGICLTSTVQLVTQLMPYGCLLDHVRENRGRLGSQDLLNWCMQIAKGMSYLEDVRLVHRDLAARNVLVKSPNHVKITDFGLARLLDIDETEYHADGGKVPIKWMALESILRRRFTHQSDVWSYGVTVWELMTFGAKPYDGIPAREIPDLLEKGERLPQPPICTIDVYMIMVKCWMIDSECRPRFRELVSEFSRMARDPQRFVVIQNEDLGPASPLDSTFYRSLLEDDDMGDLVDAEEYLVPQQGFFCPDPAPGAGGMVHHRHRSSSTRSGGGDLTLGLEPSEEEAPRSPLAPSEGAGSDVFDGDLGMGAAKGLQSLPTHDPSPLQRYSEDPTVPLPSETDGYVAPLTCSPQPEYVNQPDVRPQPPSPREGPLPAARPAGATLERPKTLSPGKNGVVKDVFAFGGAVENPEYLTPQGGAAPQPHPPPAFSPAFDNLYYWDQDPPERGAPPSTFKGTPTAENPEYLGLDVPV

| Structure (SMILES) | IC50 [1] | Ki [1] | IC50 [2] | IC50 [3] | Ki [3] | IC50 (Melanocortin receptor 4) | IC50 [4] | Ki [4] | IC50 [5] | IC50 ([6]; insect cells) | IC50 (Estrogen receptor beta) | IC50 ([6]; read-out: IC50) [µM] | IC50 ([1]; read-out: IC50) [µM] | Ki ([1]; read-out: Ki) [µM] |
| --- | --- | --- | --- | --- | --- | --- | --- | --- | --- | --- | --- | --- | --- | --- |
| O=C(O)Cc1ccccc1Nc1c(Cl)cccc1Cl [DICLOFENAC] | Not Active | Not Active | Not Active | Not Active | Not Active | Not Active | Not Active | Not Active | Not Active | Not Active | Not Active | – | – | – |
| C[C@H]1O[C@@H](O[C@H]2[C@@H](O)C[C@H](O[C@H]3[C@@H](O)C[C@H](O[C@H]4CC[C@@]5(C)[C@H](CC[C@@H]6[C@@H]5CC[C@]5(C)[C@@H](C7=CC(=O)OC7)CC[C@]65O)C4)O[C@@H]3C)O[C@@H]2C)C[C@H](O)[C@@H]1O [DIGITOXIN] | Not Active | Not Active | Not Active | Not Active | Not Active | Not Active | Not Active | Not Active | Not Active | Not Active | Not Active | – | – | – |
| CCN1CC(CCN2CCOCC2)C(c2ccccc2)(c2ccccc2)C1=O (stereo unspecified) [DOXAPRAM] | Not Active | Not Active | Not Active | Not Active | Not Active | Not Active | Not Active | Not Active | Not Active | Not Active | Not Active | – | – | – |
| Cn1c(=O)c2c(ncn2CC2OCCO2)n(C)c1=O [DOXOFYLLINE] | Not Active | Not Active | Not Active | Not Active | Not Active | Not Active | Not Active | Not Active | Not Active | Not Active | Not Active | – | – | – |
| COc1cccc2c1C(=O)c1c(O)c3c(c(O)c1C2=O)C[C@@](O)(C(=O)CO)C[C@@H]3O[C@H]1C[C@H](N)[C@H](O)[C@H](C)O1 [DOXORUBICIN] | Not Active | Not Active | Not Active | Not Active | Not Active | Not Active | Not Active | Not Active | Not Active | – | Not Active | 2.49 | – | – |
| COc1cccc2c1C(=O)c1c(O)c3c(c(O)c1C2=O)C[C@@](O)(C(=O)CO)C[C@@H]3O[C@H]1C[C@H](N)[C@@H](O)[C@H](C)O1 [EPIRUBICIN] | Not Active | Not Active | Not Active | Not Active | Not Active | Not Active | Not Active | Not Active | Not Active | Not Active | Not Active | – | – | – |
| C[C@]12CC[C@@H]3c4ccc(OC(=O)c5ccccc5)cc4CC[C@H]3[C@@H]1CC[C@@H]2O [ESTRADIOL BENZOATE] | Not Active | Not Active | Not Active | Not Active | Not Active | Not Active | Not Active | Not Active | Not Active | Not Active | Not Active | – | – | – |
| CC[C@@H](CO)NCCN[C@@H](CC)CO [ETHAMBUTOL] | Not Active | Not Active | Not Active | Not Active | Not Active | Not Active | Not Active | Not Active | Not Active | Not Active | Not Active | – | – | – |
| CC1(C)O[C@@H]2C[C@H]3[C@@H]4C[C@H](F)C5=CC(=O)C=C[C@]5(C)[C@H]4[C@@H](O)C[C@]3(C)[C@]2(C(=O)CO)O1 [FLUNISOLIDE] | Not Active | Not Active | Not Active | Not Active | Not Active | Not Active | Not Active | Not Active | Not Active | Not Active | Not Active | – | – | – |
| CC1(C)O[C@@H]2C[C@H]3[C@@H]4C[C@H](F)C5=CC(=O)CC[C@]5(C)[C@H]4[C@@H](O)C[C@]3(C)[C@]2(C(=O)CO)O1 [FLURANDRENOLIDE] | Not Active | Not Active | Not Active | Not Active | Not Active | Not Active | Not Active | Not Active | Not Active | Not Active | Not Active | – | – | – |
| CN(C)c1ccc(C(=C2C=CC(=[N+](C)C)C=C2)c2ccc(N(C)C)cc2)cc1.[Cl-] [GENTIAN VIOLET] | – | – | Not Active | Not Active | Not Active | Not Active | Not Active | Not Active | Not Active | Not Active | Not Active | – | 3.44 | 3.35 |
